One assay deals with HEK293. The assay can be described thus: Induction of SEAP reporter gene expression in TLR-deficient HEK293 cells at 5 to 1000 ng/ml. It is filed as functional, cell-based. The settings on record: Homo sapiens. For orientation: A reporter such as luciferase makes a cellular process visible.
Assay [1] concerns the target T1, Toll-like receptor 8 (Homo sapiens) (UniProt Q9NR97).
T1 sequence (whole entry): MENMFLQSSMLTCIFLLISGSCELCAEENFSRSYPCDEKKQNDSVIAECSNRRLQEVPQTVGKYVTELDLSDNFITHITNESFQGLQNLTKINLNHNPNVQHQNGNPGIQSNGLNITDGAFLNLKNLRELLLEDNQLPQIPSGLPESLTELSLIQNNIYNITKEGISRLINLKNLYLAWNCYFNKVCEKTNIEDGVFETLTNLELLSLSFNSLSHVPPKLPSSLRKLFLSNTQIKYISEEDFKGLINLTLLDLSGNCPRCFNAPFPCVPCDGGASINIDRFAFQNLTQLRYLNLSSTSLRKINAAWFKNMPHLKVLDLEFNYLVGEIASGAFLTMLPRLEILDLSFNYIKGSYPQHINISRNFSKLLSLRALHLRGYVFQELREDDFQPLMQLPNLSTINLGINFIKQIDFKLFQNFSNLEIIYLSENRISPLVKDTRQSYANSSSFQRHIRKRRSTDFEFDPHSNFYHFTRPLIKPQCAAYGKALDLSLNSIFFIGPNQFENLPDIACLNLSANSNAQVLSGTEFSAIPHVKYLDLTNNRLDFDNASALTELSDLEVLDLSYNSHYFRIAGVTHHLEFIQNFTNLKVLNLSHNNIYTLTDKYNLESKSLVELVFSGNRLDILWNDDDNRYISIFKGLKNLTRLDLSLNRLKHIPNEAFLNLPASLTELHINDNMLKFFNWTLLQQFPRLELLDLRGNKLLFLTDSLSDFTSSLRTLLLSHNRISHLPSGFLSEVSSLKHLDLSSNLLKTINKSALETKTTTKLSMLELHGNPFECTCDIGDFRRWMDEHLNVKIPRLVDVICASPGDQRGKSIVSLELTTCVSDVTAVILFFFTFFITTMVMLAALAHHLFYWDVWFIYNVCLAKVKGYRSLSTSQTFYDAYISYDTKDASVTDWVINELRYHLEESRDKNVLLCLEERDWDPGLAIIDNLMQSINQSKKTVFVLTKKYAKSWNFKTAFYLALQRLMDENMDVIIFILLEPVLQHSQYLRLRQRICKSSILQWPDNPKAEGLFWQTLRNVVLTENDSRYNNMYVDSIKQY
The assay can be described thus: Agonist activity at human TLR8 expressed in HEK293 cells at 5 to 1000 ng/ml by QUANTI-blue SEAP reporter gene assay. It is filed as cell-based.

The target in assay [2] is T2, Toll-like receptor 9 (Homo sapiens) (UniProt Q9NR96).
T2 sequence (whole entry): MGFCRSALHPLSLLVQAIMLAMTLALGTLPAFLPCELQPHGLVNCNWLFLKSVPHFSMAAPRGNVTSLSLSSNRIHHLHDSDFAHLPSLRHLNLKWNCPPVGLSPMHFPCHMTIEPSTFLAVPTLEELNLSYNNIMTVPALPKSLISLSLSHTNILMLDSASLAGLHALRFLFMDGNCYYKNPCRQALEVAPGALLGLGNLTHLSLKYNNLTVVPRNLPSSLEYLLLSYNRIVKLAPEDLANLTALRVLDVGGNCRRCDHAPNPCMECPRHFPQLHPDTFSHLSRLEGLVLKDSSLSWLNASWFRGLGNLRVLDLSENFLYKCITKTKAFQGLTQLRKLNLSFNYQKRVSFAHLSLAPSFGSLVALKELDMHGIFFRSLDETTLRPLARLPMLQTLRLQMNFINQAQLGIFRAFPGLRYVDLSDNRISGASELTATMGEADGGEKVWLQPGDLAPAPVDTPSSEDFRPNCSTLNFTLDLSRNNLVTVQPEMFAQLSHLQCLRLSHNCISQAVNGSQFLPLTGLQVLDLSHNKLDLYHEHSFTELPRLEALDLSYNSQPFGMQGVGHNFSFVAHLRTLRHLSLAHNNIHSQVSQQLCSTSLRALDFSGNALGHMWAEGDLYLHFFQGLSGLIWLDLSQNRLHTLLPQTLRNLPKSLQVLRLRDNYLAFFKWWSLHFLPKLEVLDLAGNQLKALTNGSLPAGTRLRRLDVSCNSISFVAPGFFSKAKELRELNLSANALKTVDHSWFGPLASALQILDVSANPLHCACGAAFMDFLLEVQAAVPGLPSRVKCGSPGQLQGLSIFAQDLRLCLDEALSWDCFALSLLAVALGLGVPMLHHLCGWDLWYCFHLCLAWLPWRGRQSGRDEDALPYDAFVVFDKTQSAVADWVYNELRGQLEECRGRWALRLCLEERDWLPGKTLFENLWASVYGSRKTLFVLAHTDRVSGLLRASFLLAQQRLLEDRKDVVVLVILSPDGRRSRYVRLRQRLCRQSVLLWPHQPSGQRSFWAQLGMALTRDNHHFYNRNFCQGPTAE
The assay can be described thus: Agonist activity at human TLR9 expressed in HEK293 cells at 5 to 1000 ng/ml by QUANTI-blue SEAP reporter gene assay. The format is cell-based.

Assay [3] addresses T3, Toll-like receptor 7 (Homo sapiens) (UniProt Q9NYK1).
T3 sequence (whole entry): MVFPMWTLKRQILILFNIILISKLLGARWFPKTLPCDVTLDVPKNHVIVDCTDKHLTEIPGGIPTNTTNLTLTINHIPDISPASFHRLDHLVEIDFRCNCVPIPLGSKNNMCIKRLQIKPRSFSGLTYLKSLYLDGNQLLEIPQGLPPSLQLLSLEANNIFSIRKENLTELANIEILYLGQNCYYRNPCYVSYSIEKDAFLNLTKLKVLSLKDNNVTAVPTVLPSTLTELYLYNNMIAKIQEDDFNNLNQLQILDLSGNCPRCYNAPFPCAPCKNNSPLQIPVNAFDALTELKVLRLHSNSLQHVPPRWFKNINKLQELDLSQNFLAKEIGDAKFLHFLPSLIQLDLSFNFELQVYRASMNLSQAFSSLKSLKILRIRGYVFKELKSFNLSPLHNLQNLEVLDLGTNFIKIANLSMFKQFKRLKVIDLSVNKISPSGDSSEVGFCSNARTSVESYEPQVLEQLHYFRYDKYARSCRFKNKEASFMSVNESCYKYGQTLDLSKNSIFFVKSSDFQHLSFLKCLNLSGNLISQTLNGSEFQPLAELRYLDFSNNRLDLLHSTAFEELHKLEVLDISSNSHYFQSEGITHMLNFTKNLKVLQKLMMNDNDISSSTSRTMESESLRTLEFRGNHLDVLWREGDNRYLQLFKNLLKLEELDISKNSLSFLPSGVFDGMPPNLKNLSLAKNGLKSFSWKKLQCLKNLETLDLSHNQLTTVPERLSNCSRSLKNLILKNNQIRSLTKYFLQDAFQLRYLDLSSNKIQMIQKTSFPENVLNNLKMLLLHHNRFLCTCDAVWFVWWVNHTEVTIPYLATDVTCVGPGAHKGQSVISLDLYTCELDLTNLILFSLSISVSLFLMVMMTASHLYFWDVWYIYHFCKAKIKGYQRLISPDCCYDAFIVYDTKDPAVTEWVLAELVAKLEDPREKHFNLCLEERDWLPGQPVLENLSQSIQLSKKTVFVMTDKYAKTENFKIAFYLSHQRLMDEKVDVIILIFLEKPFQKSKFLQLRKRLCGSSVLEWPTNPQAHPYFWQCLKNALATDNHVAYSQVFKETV
The assay can be described thus: Agonist activity at human TLR7 expressed in HEK293 cells at <= 500 ng/ml by QUANTI-blue SEAP reporter gene assay. The format is cell-based.

A further assay is filed under the species Homo sapiens. The assay can be described thus: Immunostimulatory activity in CFSE-labeled human NK cells assessed as TLR7 agonist-induced cell proliferation at 2 to 200 nM after 6 days by FACS analysis. The format is functional.
Another assay concerns T-cell. The assay can be described thus: Immunostimulatory activity in CFSE-labeled human T cells assessed as TLR7 agonist-induced cell proliferation at 2 to 200 nM after 6 days by FACS analysis. The format is functional, cell-based.
For another assay, the system named is B cell. The assay can be described thus: Immunostimulatory activity in CFSE-labeled human B cells assessed as TLR7 agonist-induced cell proliferation after 6 days by FACS analysis. It is filed as functional, cell-based. The settings on record: 144 h. A general note: Flow cytometry measures light scatter and fluorescence of single cells or particles in a stream.

Assay [4] has as its target T3, Toll-like receptor 7 (Homo sapiens). The assay can be described thus: Agonist activity at human TLR7 expressed in HEK293 cells at 1 ng/ml by QUANTI-blue SEAP reporter gene assay. The format is cell-based.
The target is the same in assay [5]. The assay can be described thus: Agonist activity at human TLR7 expressed in HEK293 cells at <= 50 ng/ml by QUANTI-blue SEAP reporter gene assay. It is filed as cell-based.

The values below come from ChEMBL document CHEMBL4425188, “Synthesis and immunostimulatory activity of substituted TLR7 agonists” (Bioorg Med Chem Lett, 2016).

pEC50: −log10 of the molar value. Calls of active or inactive are those of the source. No cut-off for these calls is given here.

Regarding `CCCCOc1nc(N)c2nc(O)n(Cc3ccc(C(=O)NCCC(=O)N4Cc5ccccc5C#Cc5ccccc54)cc3)c2n1`, the outcome (with HEK293; in assay [1]; in assay [2]) was inactive. Besides, in assay [3], the result was Active.
With `CCCCOc1nc(N)c2nc(NC)n(Cc3ccccc3)c2n1`, the result (in the assay filed under Homo sapiens; with T-cell; in the assay with HEK293; in [1]; in assay [2]) was inactive. Moreover, in the assay on B cell, the pEC50 (commonly the EC50 on a negative log10 scale, so that one unit is a factor of ten) was 6.01. Further, the result in [3] was Active.
`CCCCOc1nc(N)c2nc(O)n(Cc3ccc(C(=O)NCc4ccc(OC)cc4)cc3)c2n1`: the result (in the assay listed under Homo sapiens; with T-cell; with HEK293; in [1]; in assay [2]) was inactive. The pEC50 with B cell was 7.22. In addition, in assay [3], the outcome was Active.
On to `CCCCOc1nc(N)c2nc(SCC(=O)OC(C)(C)C)n(Cc3ccccc3)c2n1`, for which the outcome (in [4]; with HEK293; in assay [1]; in [2]) was inactive.
Consider `CCCCOc1nc(N)c2nc(O)n(Cc3ccc(C(=O)NCCNC(=O)C4CCC(CN5C(=O)C=CC5=O)CC4)cc3)c2n1` (centres undefined), for which the result (in the assay on HEK293; in assay [1]; in assay [2]) was inactive. Moreover, the result in assay [3] was Active.
Turning to `CCCCOc1nc(N)c2nc(O)n(Cc3ccc(C(=O)NCCOCCOCCNC(=O)OC(C)(C)C)cc3)c2n1`, the outcome (in the assay listed under Homo sapiens; with T-cell; with HEK293; in assay [1]; in assay [2]) was inactive. Further, in the assay with B cell, the pEC50 was 7.33. Moreover, the result in assay [3] was Active.
On to `CCCCOc1nc(N)c2nc(O)n(Cc3ccc(C(=O)NCCCCN)cc3)c2n1`, for which the result (in [4]; in the assay listed under Homo sapiens; in the assay on T-cell; in the assay with HEK293; in [1]; in assay [2]) was inactive. For the same compound, in assay [5], the result was Active. Further, the pEC50 in the assay with B cell is 7.32.
Regarding `CCCCOc1nc(N)c2nc(SCc3ccccc3)n(Cc3ccccc3)c2n1`, the result (in assay [4]; with HEK293; in [1]; in assay [2]) was inactive.
For `CCCCOc1nc(N)c2nc(SCCCCSc3nc4c(N)nc(OCCCC)nc4n3Cc3ccccc3)n(Cc3ccccc3)c2n1`, the result (in [4]; with HEK293; in [1]; in assay [2]) was inactive.
